{
  "source": "paper PMC4801399",
  "about": "“Impact of a CXCL12/CXCR4 Antagonist in Bleomycin (BLM) Induced Pulmonary Fibrosis and Carbon Tetrachloride (CCl4) Induced Hepatic Fibrosis in Mice” (PLoS ONE, 2016)",
  "key": {"[1]": {"experiment": "AMD070 PK study via SC injection: plasma, lung and liver concentration", "assay_type": "in vivo, C57BL/6 mice", "conditions": "SC 400 μg/mouse; for Kp: C57BL/6, read-out: Tissue AUC/Plasma AUC", "protocol": "All preceding procedures were same as those for AMD070 PK studies via IP injections. AMD070 concentrations in mouse plasma were determined using protein precipitation extraction followed by UPLC-MS/MS analysis. Briefly, 100 μL aliquots of plasma were transferred to individual wells of an Isolute PPT+ (Biotage) array plate containing 300 μL of 0.1% formic acid (FA) in acetonitrile (ACN). […] The sample residue was then reconstituted into 200 μL of 0.1/5/95 FA/ACN/H2O (v/v/v) and analyzed using reverse phase chromatography (gradient elution) combined with multiple reaction monitoring acquisition (MRM). The mobile phases consisted of 0.1% FA in H2O and 0.1% FA in ACN. AMD070 was extracted from lung and liver tissue by homogenization under basic conditions followed by liquid-liquid extraction in tert-butyl methyl ether (TBME) and ethyl acetate respectively. In summary, 50 mg of lung or liver tissue pieces were cut, weighed, and transferred to homogenization tubes. 25 μL of deionized water for lung and 10 μL for liver were added to each tube, followed by the addition of zirconium (Zr) homogenization beads. The samples were homogenized for approximately 20 seconds in the BeadBeater, followed by 1 minute of centrifugation at room temperature at 13,520 rcf. 200 μL of 1 N NaOH was then transferred to each tube, followed by a second homogenization/centrifugation cycle as described above. […] The dried residue was reconstituted into 0.1/5/95 TFA/ACN/H2O and analyzed using reverse phase chromatography (gradient elution) combined with MRM acquisition in positive electrospray mode (ES+). The mobile phases consisted of 0.1% TFA in H2O and 0.1% TFA in ACN."}, "[2]": {"test_system": "mobilization of bone marrow hematopoietic progenitors", "set-up": "method as in PMID 17452489", "conditions": "human subjects; cited from earlier work"}, "[3]": {"test_system": "CCl4-induced hepatic fibrosis", "experiment": "CCl4-induced murine model of hepatic fibrosis", "assay_type": "in vivo, C57BL/6 mice", "source_text": "Hepatic fibrosis was induced in eleven week old female C57BL/6 mice from JAX Labs. Animals were randomly divided into three groups: oil plus vehicle (PBS) control, CCl4 plus vehicle (PBS) control and CCl4 plus AMD070. As some animals were euthanized prior to study completion because they had reached a humane endpoint, final group numbers were n = 9 for oil plus vehicle (PBS) control, n = 6 for CCl4 plus vehicle (PBS) control and n = 7 for CCl4 plus AMD070 groups. […] Starting one day prior to the initial CCl4 treatment (day -1), dosing with either AMD070 reconstituted in PBS (50 mg/kg) or PBS vehicle control (10 mL/kg) was administered IP and continued 5 days/week for 4 weeks. Specifically, AMD070 or PBS treatments were not performed on the 2 days/week on which animals were given CCl4 (or olive oil vehicle control). One day after the last AMD070 or PBS treatment, animals were euthanized with CO2.\nLivers were perfused with PBS then 10% formalin and the left top lobe preserved in 10% neutral buffer formalin (NBF) for a week. The fixed liver was embedded in paraffin, six cross sections at 500 μm apart generated and stained with Picrosirius Red. For quantitation of percent hepatic fibrosis, fibrotic area (Picrosirius Red) was divided by total liver area and multiplying by 100. Three histology slides/animal were analyzed. The three slides corresponded to one slide from each of the alternative six cross sections. These analyses were performed with Olympus cellSens and the analyst was blinded to sample identity.\nThe top right lobe of livers were homogenized in 1 mL of Trizol (Invitrogen) and flash frozen in dry ice and stored in -80°C for RNA isolation to perform RT-qPCR. Total RNA was isolated and cDNA prepared using the High Capacity cDNA Reverse Transcription kit according to the manufacturer’s instructions (Life Technologies). RT-qPCR was carried out as previously described using the standard curve method. The following primer/probe sets were used to detect: Acta2 (IDT Assay–N007392.1), Probe- 5’-/56-FAM/TTACAGAGC/ZEN/CCAGAGCCATTGTCG/3IABkFQ/3’, Primer 1–5’-[…]-3’, Primer 2: 5’-[…]-3’; Col1a1 (Life Technologies custom primer/probe mix), primer 1–5’-[…], primer 2–5’- […], probe- 5’-FAM-ACACCGGAACTTGGG-MGBNFQ; Tbp (Life Technologies custom primer/probe mix), Primer 1–5’-[…], Primer 2–5’-TGGCTCCTGTGCACACCAT, Probe- 5’-FAM-CGTTGATTTTCAGTTCTGG-MGBNFQ; Gapdh (IDT Assay–Mm.PT.39a.1), probe- 5’-/56-FAM/TGCAAATGG/ZEN/CAGCCCTGGTG/3IABkFQ/3’, primer 1–5’-AATGGTGAAGGTCGGTGTG-3’, primer 2–5’-[…]-3’.\nFive μL of serum was used with the AST Activity Assay Kit (Sigma MAK055) as per manufacturer’s instructions to determine serum AST levels."}, "[4]": {"test_system": "BLM-induced pulmonary fibrosis", "experiment": "BLM-induced murine model of pulmonary fibrosis", "assay_type": "in vivo, CD-1 mice", "protocol": "PF was induced in six-weeks old female CD-1 mice purchased from Harlan. Animals were randomly divided into three groups (n = 10/group): PBS plus acetate buffer control, BLM plus acetate buffer and BLM plus AMD070.\nOn day 0, mice were anaesthetized with isoflurane and PF was induced by BLM administration. Specifically, BLM (C103610, Fresenius Kabi Canada, 2U/kg) in 40 μL PBS or vehicle control (PBS) was administrated by non-surgical endotracheal instillation with sterile disposable plastic loading pipette tips. The next day, AMD070 (Shanghai Haoyuan Chemexpress Co., 400 μg/mouse in 200 μL 30 mM acetate buffer) or 200 μL of 30 mM acetate buffer (pH 5) was administrated via oral gavage (PO) with a 20G feeding needle. AMD070 or acetate buffer vehicle was administrated daily for 21 consecutive days. Animals were euthanized with avertin overdose on day 22.\nFollowing perfusion with PBS, lungs were fixed in 4% paraformaldehyde at 4°C for 2 days. These were embedded in paraffin, sectioned at 1 mm apart and stained with hematoxylin-eosin (H&E) and Masson’s Trichrome stains. For quantitation of percent PF, entire lung and fibrotic areas were outlined. Percent fibrotic area was calculated by dividing fibrotic area (mm^2) by total lung area (mm^2) and multiplying by 100. For H&E stained slides, two histology slides/animal were selected from the central region of the lungs and analyzed whereas only one histology slide/animal was analyzed with Masson’s Trichrome stained slides. These analyses were performed with Image J and the analyst was blinded to sample identification."}, "[5]": {"conditions": "RT-qPCR relative to Gapdh and Tbp, CCl4 plus AMD070 vs CCl4 plus PBS"}, "[6]": {"conditions": "BLM plus AMD070 400 μg/mouse PO daily 21 days, day 22, mean, n = 9"}},
  "note": "Like-named read-outs stand apart in the source and are kept apart here.",
  "data": [
    {"smiles": "NCCCCN(Cc1nc2ccccc2[nH]1)[C@H]1CCCc2cccnc21", "note": "[AMD070]", "values": [
      {"measurement": "Cmax", "setting": "[1]; C57BL/6, 400 ug, Liver", "value": 5760, "unit": "ng/g"},
      {"measurement": "Tmax", "setting": "[1]; C57BL/6, 400 ug, Liver", "value": 30, "unit": "min"},
      {"measurement": "Cmax", "setting": "[1]; C57BL/6, 400 ug, Lung", "value": 5650, "unit": "ng/g"},
      {"measurement": "Tmax", "setting": "[1]; C57BL/6, 400 ug, Lung", "value": 60, "unit": "min"},
      {"measurement": "Cmax", "setting": "[1]; C57BL/6, 400 ug, Plasma", "value": 700, "unit": "ng/mL"},
      {"measurement": "Tmax", "setting": "[1]; C57BL/6, 400 ug, Plasma", "value": 30, "unit": "min"},
      {"measurement": "AUC", "setting": "[1]; C57BL/6, 400 ug, Plasma, read-out: AUC (all time points)", "value": 970, "unit": "ng·h/mL"},
      {"measurement": "Kp", "setting": "[1]; Liver", "value": 79.7},
      {"measurement": "Kp", "setting": "[1]; Lung", "value": 83.3},
      {"measurement": "time of peak mobilization of bone marrow hematopoietic progenitors post dosing", "setting": "[2]", "value": "two to three"},
      {"measurement": "percent liver fibrosis (Picrosirius red staining)", "setting": "[3]; CCl4 plus AMD070 50 mg/kg IP 5 days/week for 4 weeks, group average, CCl4 plus PBS 3.2%", "value": 3.6, "unit": "%"},
      {"measurement": "mortality rate between groups", "setting": "[3]; CCl4 plus AMD070 50 mg/kg IP vs control groups", "value": "no difference"},
      {"measurement": "liver Acta2 (αSma) relative transcription level", "setting": "[3]; [5]", "value": "not different"},
      {"measurement": "liver Col1a1 relative transcription level", "setting": "[3]; [5]", "value": "not different"},
      {"measurement": "serum AST levels", "setting": "[3]; after 4 weeks, CCl4 plus AMD070 vs CCl4 plus vehicle control", "value": "no difference"},
      {"measurement": "lung fibrosis, Masson's Trichrome", "setting": "[4]; [6]", "value": 10.5, "unit": "%"},
      {"measurement": "lung inflammation, H & E stained lungs (percent surface area)", "setting": "[4]; [6]", "value": 14.2, "unit": "%"},
      {"measurement": "survival over the duration of the study", "setting": "[4]; BLM plus AMD070 400 μg/mouse PO daily, 22 days, BLM plus acetate buffer 40%", "value": 90, "unit": "%"}
    ]}
  ]
}
